We go through one compound from PMC7594840, “Identification of histone deacetylase inhibitors with (arylidene)aminoxy scaffold active in uveal melanoma cell lines” (Journal of Enzyme Inhibition and Medicinal Chemistry, 2020).

The term IC50 denotes the concentration that inhibits the measured activity by half.

Test [1] has as its system HeLa nuclear extract containing a mixture of HDACs. In words: HDAC Fluorimetric Assay/Drug Discovery Kit (BIOMOL) on HeLa nuclear extract. It is filed as biochemical.
Method: The hydroxamic acids 1a–c, 2a–f and carboxylic acids 3a–c, 4a––e synthesised in this study were preliminarily tested on a HeLa nuclear extract containing a mixture of HDACs, by using a commercially available HDAC assay kit (BIOMOL). SAHA and Trichostatin A (TSA) were used as positive controls.
HDAC inhibitory activity of newly synthesised compounds was evaluated using an HDAC Fluorimetric Assay/Drug Discovery Kit (AK-500, BIOMOL). […] Reactions were stopped after 30 min by adding Fluor de Lys^TM Developer. After the addition of this developer, the plate was incubated at room temperature for 15 min, the fluorescence intensity of the wells was measured on a fluorometric plate reader with excitation set at 360 nm and emission detection set at 460 nm.
Another test has as its target T1, HDAC1 (Homo sapiens, UniProt Q13547).
T1 construct: purchased BPS Bioscience
In words: Microfluidic chip-based HDAC inhibition assay (Calliper off-chip mobility shift), HDAC1. The conditions noted are these: duplicate, 10-point dose curve, 3-fold serial dilution from 30 μM. In kind it is biochemical.

The next test deals with T2, HDAC3 (Homo sapiens, UniProt O15379).
T2 construct: purchased BPS Bioscience
Put plainly: Microfluidic chip-based HDAC inhibition assay (Calliper off-chip mobility shift), HDAC3. It is filed as biochemical. As to conditions: duplicate, 10-point dose curve, 3-fold serial dilution from 30 μM; SAHA 15-point dose curve.

A further test has as its target T3, HDAC6 (Homo sapiens, UniProt Q9UBN7).
T3 construct: purchased BPS Bioscience
T3 sequence (Q9UBN7 1-1215): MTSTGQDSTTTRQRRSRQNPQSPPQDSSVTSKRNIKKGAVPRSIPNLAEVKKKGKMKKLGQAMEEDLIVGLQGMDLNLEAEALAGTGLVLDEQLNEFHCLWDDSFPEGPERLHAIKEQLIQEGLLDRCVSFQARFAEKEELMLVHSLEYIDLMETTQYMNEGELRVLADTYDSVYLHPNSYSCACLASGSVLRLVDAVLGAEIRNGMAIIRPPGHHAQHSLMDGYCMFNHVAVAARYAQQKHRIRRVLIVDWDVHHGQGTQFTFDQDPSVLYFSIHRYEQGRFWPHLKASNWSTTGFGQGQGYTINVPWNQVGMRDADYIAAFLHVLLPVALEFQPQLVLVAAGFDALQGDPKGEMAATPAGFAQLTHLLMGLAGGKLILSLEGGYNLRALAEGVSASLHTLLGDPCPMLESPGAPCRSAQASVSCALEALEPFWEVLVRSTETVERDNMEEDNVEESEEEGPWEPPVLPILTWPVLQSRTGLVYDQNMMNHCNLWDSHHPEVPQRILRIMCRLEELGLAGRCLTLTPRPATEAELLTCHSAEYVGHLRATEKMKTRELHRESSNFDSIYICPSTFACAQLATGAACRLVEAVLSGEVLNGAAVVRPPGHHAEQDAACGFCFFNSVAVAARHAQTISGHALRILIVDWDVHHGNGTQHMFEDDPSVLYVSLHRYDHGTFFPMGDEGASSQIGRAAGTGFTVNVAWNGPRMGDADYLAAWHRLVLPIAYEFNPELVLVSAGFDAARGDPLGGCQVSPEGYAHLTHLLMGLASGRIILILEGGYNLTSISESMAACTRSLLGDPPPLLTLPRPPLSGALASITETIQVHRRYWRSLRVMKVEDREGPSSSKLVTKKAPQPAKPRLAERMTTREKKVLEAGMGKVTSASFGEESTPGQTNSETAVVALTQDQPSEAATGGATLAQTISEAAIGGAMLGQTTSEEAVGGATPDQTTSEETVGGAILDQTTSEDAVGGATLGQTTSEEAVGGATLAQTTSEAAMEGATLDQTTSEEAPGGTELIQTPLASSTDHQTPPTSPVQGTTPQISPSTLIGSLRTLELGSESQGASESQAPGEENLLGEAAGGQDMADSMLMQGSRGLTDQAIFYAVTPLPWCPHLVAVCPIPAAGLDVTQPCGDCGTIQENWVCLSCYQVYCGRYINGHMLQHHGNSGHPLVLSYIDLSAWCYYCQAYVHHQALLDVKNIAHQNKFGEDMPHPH
Put plainly: Microfluidic chip-based HDAC inhibition assay (Calliper off-chip mobility shift), HDAC6. It is filed as biochemical. The conditions noted are these: duplicate, 10-point dose curve, 3-fold serial dilution from 30 μM; SAHA 15-point dose curve; read-out: IC50 HDAC6.

A further test has as its target T4, HDAC8 (Homo sapiens, UniProt Q9BY41).
T4 construct: purchased BPS Bioscience
T4 sequence (Q9BY41 1-377): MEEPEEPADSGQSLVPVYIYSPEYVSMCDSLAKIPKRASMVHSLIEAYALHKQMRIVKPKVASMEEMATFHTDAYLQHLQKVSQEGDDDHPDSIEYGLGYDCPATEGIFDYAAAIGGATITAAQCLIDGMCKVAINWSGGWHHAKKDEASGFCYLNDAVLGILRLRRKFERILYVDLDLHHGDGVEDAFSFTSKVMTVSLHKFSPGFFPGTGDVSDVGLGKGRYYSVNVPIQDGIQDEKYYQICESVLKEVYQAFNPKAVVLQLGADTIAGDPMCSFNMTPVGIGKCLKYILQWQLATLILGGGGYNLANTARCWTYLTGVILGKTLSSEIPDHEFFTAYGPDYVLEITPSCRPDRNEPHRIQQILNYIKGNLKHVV
Put plainly: Microfluidic chip-based HDAC inhibition assay (Calliper off-chip mobility shift), HDAC8. In kind it is biochemical. As to conditions: duplicate, 10-point dose curve, 3-fold serial dilution from 30 μM.

Test [2] deals with 92.1 cells. In words: MTT cell viability assay, UM cell line 92.1. In kind it is cell-based, human. As to conditions: 72 h treatment, compared with SAHA and LD10. As to the method: (§1) The anti-proliferative effects of the most promising HDAC inhibitors, VS16, VS13, SN2, and LD10 were evaluated on human UM cell lines (92.1 and Mel270) and SAHA was used as a positive control. First, we assessed by MTT assay the cell viability after a 72 h treatment at different concentrations. […] Similar results were found for ovarian carcinoma cell line A2780 and to a lesser extent for SKOV3 (Supplementary Figure S2).
(§2) Figure 7. MTT. In vitro cytotoxicity at the 72 h time point of the different compounds in human UM cell lines 92.1 and Mel270, as assessed by the MTT cell viability assay. Data are expressed as percent of control with the DMSO solvent, which was used at the same amount present in the highest compound concentration. Error bars represent SD of quadruplicates. One representative experiment is shown.
(§3) Treatments with the compounds were performed with slight differences, according to the final use of the samples. For the cell viability assay with MTT, cells were seeded in 96-well flat-bottom plates in culture medium at 5 × 10^3 cells/well, whereas for cell cycle analysis and QRT-PCR cells were seeded in 24-well plates at 5 × 10^4 cells/well. The day after, a culture medium containing the appropriate amount of compounds or their solvent control DMSO was added, and treatments were carried out for the indicated time.
(§4) Cell viability after treatment was evaluated by a microculture tetrazolium reduction assay using MTT [3–(4,5-dimethyltiazol-2-yl) 2,5-diphenyltetrazolium bromide; Sigma]. At 72 h of treatment, 20 μl of MTT stock solution (2 mg/ml in PBS) were added to 200 μl cell cultures for an additional 4 h of incubation. MTT-containing culture medium was then removed and precipitated formazan was dissolved in 100 μl of DMSO. Results were read within 15 min in a microplate reader spectrometer at 540 nm (MEDGENIX 400 ATC, Medgenix Diagnostics), and the means of quadruplicates were calculated. Cell survival was expressed as a percentage of control samples.
On the technique in general: Tetrazolium assays rely on reduction of a dye to a coloured formazan, in cell work by metabolically active cells.

The subject of test [3] is Mel270 cells. Put plainly: MTT cell viability assay, UM cell line Mel270. In kind it is cell-based, human. As to conditions: 72 h treatment, compared with SAHA and LD10. Here is the method: as §1, §2, §3, §4
In test [4] the test system is 92.1 cells. Put plainly: Cell cycle distribution by flow cytometry (PI), 92.1 cells. It is filed as cell-based, human. The conditions noted are these: 10 µM compound, 48 h. As to the method: (§5) We then investigated whether this anti-proliferative effect was due to the blockade in the G0/G1 phase of the cell cycle, as expected for SAHA[31].
(§6) Figure 8. Influence of the different compounds and DMSO solvent control on cell cycle distribution in UM 92.1 and Mel270 cells. The cells were treated with 10 µM compound for 48 h and cell cycle distribution was analysed by flow cytometry after fixation and staining with PI. The percentage of cells in each category is indicated. One representative experiment is shown.
as §3
(§7) To assess the cell cycle status of treated samples, after 48 h of incubation the cells were harvested, washed twice with cold PBS, and fixed in 70% ethyl alcohol at −20 °C overnight. The day after, the samples were washed with cold PBS and incubated for 20 min with propidium iodide (PI) staining solution (50 μg/ml PI, 0.05% Triton X-100, 0.2 mg/ml RNase A in PBS) at room temperature. Flow cytometric analysis of DNA content was performed using a FACScan flow cytometer with the CellQuest software (BD Biosciences). Gating on viable cells was performed using physical parameters and 10^4 gated events were acquired. Cell cycle analysis on the gated PI distribution was performed using Modfit software.

Test [5] deals with Mel270 cells. In words: Cell cycle distribution by flow cytometry (PI), Mel270 cells. In kind it is cell-based, human. The conditions noted are these: 10 µM compound, 48 h. Here is the method:
as §5, §6, §3, §7
(In general: A flow cytometer gives signals particle by particle.)

T2 sequence (O15379 whole entry): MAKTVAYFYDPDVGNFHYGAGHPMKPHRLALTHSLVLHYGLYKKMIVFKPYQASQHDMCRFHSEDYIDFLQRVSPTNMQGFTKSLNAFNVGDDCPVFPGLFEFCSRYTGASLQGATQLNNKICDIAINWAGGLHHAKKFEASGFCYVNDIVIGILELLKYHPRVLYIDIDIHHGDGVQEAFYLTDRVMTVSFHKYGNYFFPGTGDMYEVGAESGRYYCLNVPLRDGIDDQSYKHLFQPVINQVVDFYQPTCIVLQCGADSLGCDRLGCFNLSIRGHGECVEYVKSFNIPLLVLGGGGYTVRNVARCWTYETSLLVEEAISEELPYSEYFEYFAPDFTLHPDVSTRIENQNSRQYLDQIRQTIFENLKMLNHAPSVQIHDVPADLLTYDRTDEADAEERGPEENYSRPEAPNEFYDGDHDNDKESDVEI
T2 sequence (Q9Y618 395-489 partner limits assumed): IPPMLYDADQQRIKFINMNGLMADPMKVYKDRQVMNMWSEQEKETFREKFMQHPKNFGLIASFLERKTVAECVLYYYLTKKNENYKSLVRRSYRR
T1 sequence (Q13547 whole entry): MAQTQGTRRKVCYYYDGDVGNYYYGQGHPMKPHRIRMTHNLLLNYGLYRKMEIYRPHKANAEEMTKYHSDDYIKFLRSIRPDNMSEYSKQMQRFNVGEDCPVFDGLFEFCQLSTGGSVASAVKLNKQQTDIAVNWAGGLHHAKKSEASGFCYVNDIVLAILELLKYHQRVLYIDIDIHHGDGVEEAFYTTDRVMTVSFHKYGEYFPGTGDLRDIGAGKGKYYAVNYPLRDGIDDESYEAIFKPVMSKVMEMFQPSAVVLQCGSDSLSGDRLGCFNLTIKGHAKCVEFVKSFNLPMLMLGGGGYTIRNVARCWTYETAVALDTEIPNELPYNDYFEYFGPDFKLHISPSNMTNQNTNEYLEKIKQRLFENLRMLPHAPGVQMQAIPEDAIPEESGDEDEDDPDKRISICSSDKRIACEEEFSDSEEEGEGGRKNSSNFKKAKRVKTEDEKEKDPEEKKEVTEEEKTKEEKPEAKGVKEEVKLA
From the text for HDAC1: (§8) Test compounds were screened against human histone deacetylases (HDACs) 1, 3, 6, and 8 using the Calliper off-chip mobility shift assay technology. All HDACs were purchased from BPS Bioscience and four selective substrates were used according to the targeted isozyme. […] Buffers components, except for CR-3 (LabChip Coating Reagent 3, purchased from PerkinElmer, Product Number 760050) and Panobinostat (LBH589, purchased from ApexBio Technology)[35]^,[36] were purchased from Sigma Aldrich. […] (all purchased from Selleck Chemicals).
From the text for HDAC3: as §8
From the text for HDAC6: as §8
From the text for HDAC8: as §8

With `C/C(=N\OCCCCC(=O)NO)c1ccc(-c2ccccc2)cc1` [Compound 2e, (E)-5-(((1-([1,1′-biphenyl]-4-yl)ethylidene)amino)oxy)-N-hydroxypentanamide], the “folds more potent than SAHA” value in test [1] (HeLa extract IC50 compared with SAHA) is 3- to 5 fold. Besides, the IC50 in test [1] (means of at least three experiments, SD <20% of the mean) worked out at 53 nM; on HDAC1 it was 593 nM; at HDAC3, 43 nM; at HDAC6, 406 nM; on HDAC8, 13700 nM. In addition, the “effect on cell viability (MTT)” value in the test on 92.1 cells [2] and in the test on Mel270 cells [3] was “stronger effect” in each case. The “effect on cell cycle distribution” value in the test on 92.1 cells [4] and with Mel270 cells [5] was “efficiently block the cell cycle at the G0/G1 phase” throughout.
